# Source: article PMC4962298 (Research in Pharmaceutical Sciences, 2016)
# Assays:
# [1] = tested on: intestinal P-gp-mediated digoxin transport; test: In situ rat single-pass intestinal perfusion; assay type: in vivo; details: for increase of digoxin Peff relative to digoxin alone: rat SPIP
# [2] = tested on: P-gp expression in Caco-2 cells; test: Western blot analysis of P-gp expression; assay type: cell-based; details: 48 h
# [3] = 1 μM drug, not statistically significant
smiles,measurement,setting,value
C[C@H]1O[C@@H](O[C@H]2[C@@H](O)C[C@H](O[C@H]3[C@@H](O)C[C@H](O[C@H]4CC[C@@]5(C)[C@H](CC[C@@H]6[C@@H]5C[C@@H](O)[C@]5(C)[C@@H](C7=CC(=O)OC7)CC[C@]65O)C4)O[C@@H]3C)O[C@@H]2C)C[C@H](O)[C@@H]1O [digoxin],Peff of digoxin (20 μM) alone,"[1]; rat jejunum SPIP, digoxin 20 μM, no inhibitor, n = 3, mean ± SD",3.4 ± 0.8 × 10^-5cm/s
Cc1ccc(S(=O)(=O)NC(=O)NN2CC3CCCC3C2)cc1 (stereo not drawn) [gliclazide],P-gp protein levels (P-gp/β-actin) relative to the untreated control,[2]; 500 μM drug,decreased
same,increase of digoxin Peff relative to digoxin alone,"[1]; 0.1 μM drug, significant",about 59%
same,increase of digoxin Peff relative to digoxin alone,"[1]; 10 μM drug, significant",~76%
same,increase of digoxin Peff relative to digoxin alone,"[1]; 500 μM drug, significant",~153%
CN(C)C(=N)N=C(N)N [metformin],P-gp protein levels (P-gp/β-actin) relative to the untreated control,[2]; 7000 μM drug,decreased
same,increase of digoxin Peff relative to digoxin alone,[1]; [3],about 44%
same,increase of digoxin Peff relative to digoxin alone,"[1]; 100 μM drug, P < 0.01",117.6%
same,increase of digoxin Peff relative to digoxin alone,"[1]; 7000 μM drug, P < 0.01",167.6%
CCc1ccc(CCOc2ccc(CC3SC(=O)NC3=O)cc2)nc1 (stereo not drawn) [pioglitazone],P-gp protein levels (P-gp/β-actin) relative to the untreated control,[2]; 300 μM drug,decreased
same,increase of digoxin Peff relative to digoxin alone,[1]; [3],about 38%
same,increase of digoxin Peff relative to digoxin alone,"[1]; 300 μM drug, P < 0.01",~100%
